Assays:
Format in all cases: physicochemical
[1] = Degree of crystallinity of composition after pulverization (powder X-ray diffraction, Vonk method); conditions: after pulverization (freeze-dried pulverized suspension of Example 1)
Method: A powder obtained by freeze-drying the pulverized suspension obtained in Example 1 was enclosed in a quartz glass capillary and measured using a powder X-ray diffraction measurement apparatus (Rigaku Corporation, ultraX TTR2-300), Cu rotating target, parallel beam method (50 kV, 300 mA), scanning angle 3-120 degrees, scan step 0.02 degree/counting time 0.6 sec. The degree of crystallinity was calculated from the obtained X-ray diffraction profile using the Vonk method.
The X-ray diffraction profiles were obtained by measurements using the above-mentioned measurement apparatuses and conditions.

[2] = Particle size measurement of pulverized suspensions (laser diffraction/scattering LA-920); conditions: after pulverization (Example 1, ball mill with Kollidon 17PF and sodium lauryl sulfate)
Source text: The dispersion medium used for the measurement is usually water, but an aqueous solution of a substance other than the poorly water soluble substance contained in the composition and the like (for some purposes, buffer solutions at various pH levels, mimicked body fluid, 0.5% methylcellulose aqueous solution and the like) can also be used.
“90% frequency particle diameter” is a particle diameter corresponding to the 90% frequency of the above-described integral distribution curve and, in the present invention, means the particle diameter of 90% frequency (90% frequency particle diameter) of the composition dispersed in a liquid, as measured using a laser diffraction/scattering particle size distribution analyzer (LA-920, Horiba Ltd.).
As a dispersion medium, purified water was used.

[3] = Degree of crystallinity of composition after pulverization (powder X-ray diffraction, Vonk method); conditions: before pulverization
[4] = Particle size measurement of pulverized suspensions (laser diffraction/scattering LA-920)
[5] = after pulverization (Example 1, ball mill with Kollidon 17PF and sodium lauryl sulfate)
[6] = before pulverization, substances used in Example 1

degree of crystallinity [1] [%] | turbulent factor [1] | D90 [2] [μm] | degree of crystallinity [3] [%] | turbulent factor [3] | particle size: D50 [4, 5] [μm] | particle size: D50 [4, 6] [μm] | SMILES
89.8 | 0.793 | 0.50 | 99.9 | −0.001 | 0.36 | 9.61 | COc1ccc2c(c1)c(CC(=O)O)c(C)n2C(=O)c1ccc(Cl)cc1 [indomethacin]
 |  | 0.77 |  |  | 0.50 |  | CC(C(=O)O)c1cccc(C(=O)c2ccccc2)c1 (stereo not shown) [ketoprofen, Ketoprofen]
 |  | 0.65 |  |  | 0.44 |  | COc1cc(NS(=O)(=O)c2ccc(N)cc2)nc(OC)n1 [sulfadimethoxine]

More lines, now with the values behind:

SMILES | degree of crystallinity [1] [%] | turbulent factor [1] | D90 [2] [μm] | degree of crystallinity [3] [%] | turbulent factor [3] | particle size: D50 [4, 5] [μm] | particle size: D50 [4, 6] [μm]
FC(F)(F)c1ccc(/C=C/c2nc(COc3ccc(CCCCn4ccnn4)cc3)co2)cc1 [compound A, 1-(4-{4-[(2-{(E)-2-[4-(trifluoromethyl)phenyl]ethenyl}-1,3-oxazol-4-yl)methoxy]phenyl}butyl)-1H-1,2,3-triazole] | 61.3 | 1.412 | 0.68 | 74.7 | −0.163 | 0.42 | 5.68
CCC1=C(C)CN(C(=O)NCCc2ccc(S(=O)(=O)NC(=O)N[C@H]3CC[C@H](C)CC3)cc2)C1=O [glimepiride] | 68.7 | 2.249 | 0.55 | 73.7 | 0.622 | 0.39 | 1.67
COC1=CC(=O)C[C@@H](C)[C@]12Oc1c(Cl)c(OC)cc(OC)c1C2=O [griseofluvin, 7-chloro-2′,4,6-trimethoxy-6′-methylspiro[benzofuran-2(3H),1′-[2]cyclohexene]-3,4′-dione] |  |  | 0.50 |  |  | 0.35 | 6.35
